One series deals with P. falciparum K1. As to the kind of experiment: In vitro blood stage antimalarial activity, [3H]hypoxanthine uptake. The class given is cell-based. The settings on record: Plasmodium falciparum. On the procedure: (§1) In Vitro Blood Stage Antimalarial Efficacy Evaluation. New compounds were tested against a panel of strains of P. falciparum.
(§2) Test compounds were initially dissolved in DMSO and diluted 400 fold in RPMI 1640 culture medium supplemented with 25 mM Hepes, 32 mM NaHCO3 and 10% Albumax I (Gibco, NY). These solutions were subsequently serially diluted two-fold with a Beckman Biomek® 1000 Robot (Fullerton, Calif.) over 11 different concentrations. The parasites were exposed to serial dilutions of each compound for 48 hrs and incubated at 37° C. with 5% O2, 5% CO2 and 90% N2 prior to the addition of [^3H]hypoxanthine. After a further incubation of 18 hrs, parasite DNA was harvested from each microtiter well using Packard Filtermate™ 196 Harvester (Meriden, Conn.) onto glass filters. Uptake of [^3H]hypoxanthine was measured with a Packard TopCount Liquid Scintillation Counter (Packard Instrument Co.).

A further series relates to rodent P. berghei. Briefly: Antimalarial potency (MCD, MCureD) and therapeutic indices, rodent P. berghei. The class given is in vivo. As to the method:
Antimalarial potency was measured by determination of the MCD (minimum clearance dose), a commonly used efficacy measurement. The primary therapeutic indices, which were obtained by using the MCDs as the effective parameters, were calculated. A secondary therapeutic indices measure of antimalarial potency was determined by use of the dose for the MCureD (minimum curative dose).

The test system of the next series is P. falciparum V1S. Briefly: microbe, parasite or virus in culture. The class given is cell-based. The settings on record: Plasmodium falciparum. On the procedure:
as §1, §2

A further series has as its system Plasmodium cynomolgi. Briefly: Radical curative activity in relapsed Rhesus monkeys. In kind it is in vivo. The settings on record: for Monkeys cured: co-administered with chloroquine, two monkeys; for Days post-treatment (to relapse): with CQ 10 mg/kg/day for 7 days, one value per monkey. On the procedure: Compounds with antihypnozoite activity will delay the relapse or radically cure the infection. […] Relapse was expected in the control group. Relapse in the treated group indicates failure of the test compounds. […] Relapse in experimental animals and the second relapse of the control monkeys were treated with the standard 7 day oral CQ and primaquine (1.78 mg base/kg).

Another series concerns P. falciparum DD2. As to the kind of experiment: In vitro blood stage antimalarial activity, [3H]hypoxanthine uptake. The settings on record: Plasmodium falciparum. In kind it is cell-based. As to the method: as §1, §2
The subject of another series is P. falciparum PH3. The series is described as above. The class given is cell-based. The settings on record: Plasmodium falciparum. On the procedure: as §1, §2
The next series concerns P. falciparum TM4. The description is as above. In kind it is cell-based. The settings on record: Plasmodium falciparum. As to the method: as §1, §2
Another series relates to P. falciparum 3D7. The series is described as above. The class given is cell-based. The settings on record: Plasmodium falciparum. As to the method:
as §1, §2

The next series relates to P. falciparum TM6. The series is described as above. The class given is cell-based. The settings on record: Plasmodium falciparum. As to the method:
as §1, §2

The test system of series [1] is Liver Stage of P. yoelii yoelii. Briefly: In vitro liver-stage antimalarial efficacy. In kind it is cell-based. The settings on record: Plasmodium yoelii. On the procedure:
In Vitro Liver-Stage Antimalarial Efficacy Evaluation. Any new desirable antimalarial drug should be broad spectrum: it should be active against both the blood stage and the liver stage of the parasite. New compounds were assessed on the Plasmodium yoelii liver stage in vitro. The liver stage of P. yoelii is a parasite of rodent extensively used as an experimental model for studying the initial phase of the malaria infection.

The next series in a line: in vivo. The settings on record: Sprague-Dawley, rat, po.
For series [2], the system named is Plasmodium cynomolgi sporozoite. As to the kind of experiment: Causal prophylactic activity in P. cynomolgi sporozoite-challenged Rhesus monkeys. The settings on record: PO 15 mg/kg, 1 daily for 3 days. The class given is in vivo. From the text:
Two monkeys were used in each test group. The control animals developed parasitemia in about 10 days after inoculation of about 1×10^6 P. cynomolgi sporozoites harvested from Anopheles dirus. All the monkeys received three treatments, once a day for three consecutive days beginning a day before (−1, 0, +1) the sporozoites challenge. The control monkeys (group 1) received HECT and the experimental animals received testing compound by using 8 Fr., 15-in. long nasogastric tubes.

Series [3] has as its system chloroquine-resistant FVO strain of P. falciparum. As to the kind of experiment: Efficacy against blood stages of P. falciparum in Aotus monkeys. The settings on record: oral for 3 days. The class given is in vivo. An excerpt:
In Vivo Efficacy Studies in Aotus Monkey Model. The monkeys selected for the study had active infections of the chloroquine-resistant FVO strain of P. falciparum.
Malaria-naive Panamanian owl monkeys (Aotus lemurinus lemurinus) were used as hosts for chioroquine-resistant P. falciparum. The chloroquine-resistant Vietnam Smith strain was used in the initial experiments. In subsequent studies, a recrudescent isolate from a Vietnam Smith strain infected Aotus monkey treated with chloroquine was used.
The inoculum size produced a parasitemia of at least 5×10^3/mm^3 by the fifth day postinoculation, at which time treatment was begun. Stock solutions of water-soluble drug were prepared at appropriate concentrations and maintained at 4° C. during the course of treatment. A suspension of water-insoluble drugs was prepared in 0.3% methylcellulose just prior to use. All drugs were administered by gastric intubation in a volume of 7.0 ml, followed by a 7.0-mi rinse with either water or 0.3% methylcellulose. Test drug was given orally for either three or seven consecutive days. […]
Giemsa-stained blood smears were prepared from all animals and examined daily beginning the day after inoculation until parasitemia was cleared and for at least seven days thereafter. […] Ten or less parasites on a thick blood film were recorded as <10. Parasitemia was enumerated and expressed as number of parasites/mm^3. […]

A further series has as its system Plasmodium berghei. Briefly: Oral prophylactic test in mice. In kind it is in vivo.

These results are taken from patent publication US8859578B2, “Natural product derivatives with antiprotozoal activity” (Radix Pharmaceuticals, Inc., priority 2012, dated 2014).

“And” between values parts separate entries of the source, which are not always exact repeats. Identical values can stand only once. Like-named read-outs stand apart in the source and are kept apart here.

For orientation: IC50 means the concentration at which inhibition is half-maximal. Consider `CCN(CC)Cc1cc(Nc2ccnc3cc(Cl)ccc23)ccc1O` [Amodiaquine], for which the 50% inhibitory concentration (IC50) with P. falciparum K1 (read-out: IC50) turned out to be 21.2 ± 2.1 nM.
Consider `C[C@H]1[C@H](OC(=O)CCC(=O)O)O[C@@H]2O[C@@]3(C)CC[C@H]4[C@H](C)CC[C@@H]1[C@@]24OO3` [Artesunate], for which the “MCureD (minimum curative dose)” value in the series on rodent P. berghei (route of administration iv) amounted to 25.4 mg/kg.
With `CCN(CC)CCCC(C)Nc1ccnc2cc(Cl)ccc12` (stereo not drawn) [Chloroquine, reference compound], the 50% inhibitory concentration (IC50) with P. falciparum V1S is 152 ± 14.1 nM; in the series with P. falciparum DD2, 45.8 ± 10.2 nM; in the series with P. falciparum K1 it was 166 ± 19.3 nM; with P. falciparum PH3 it was 33.4 ± 9.1 nM; with P. falciparum TM4 it was 115 ± 12.7 nM; in the series on P. falciparum 3D7, 9.7 ± 3.4 nM. The molecule further showed an IC50 in the series on P. falciparum TM6 of 96.4 ± 6.9 nM. The “MCureD (minimum curative dose)” value in the series on rodent P. berghei (administered orally) is on record as “None”. Further, in the series on Plasmodium cynomolgi (Rhesus monkeys, chloroquine alone, 10 mg/kg/day for 7 days), the “Results (radical curative test)” value was “relapse”.
For orientation: NOAEL means the highest tested level that showed no adverse finding. Usually MTD stands for the highest dose tested that stayed within the study's limit of toxicity. `COc1cc2c(c3cc4c(nc13)C=C[C@@]1([C@H]3CC([C@H](O)[C@@H](N)C(C)C)OCO3)C=CCOC41)[C@@H]1OCOC[C@]1(C)N2` (stereo partly drawn) [Formula A]: the half-inhibitory concentration (IC50) is 0.21 ± 0.03 nM in the series with P. falciparum V1S; 6.2 nM in [1]; 0.17 ± 0.04 nM in the series with P. falciparum DD2 (read-out: IC50); 0.35 ± 0.06 nM with P. falciparum K1 (read-out: IC50); 0.27 ± 0.05 nM in the series with P. falciparum PH3 (read-out: IC50); 0.41 ± 0.09 nM in the series with P. falciparum TM4 (read-out: IC50). Also, the half-inhibitory concentration (IC50) in the series on P. falciparum 3D7 (read-out: IC50) is 0.12 ± 0.03 nM; with P. falciparum TM6 (read-out: IC50) it was 0.27 ± 0.05 nM. Moreover, the no observed adverse effect level (NOAEL) at 2 weeks in the series “in vivo” is over 100 mg/kg/day. This molecule also showed an MTD at 2 weeks in “in vivo” (MTD (maximum tolerated dose)) of over 500 mg/kg. Moreover, the “Delay of patency compared with untreated control monkeys” value in [2] is “delayed patency of treated monkeys more than a month”. Further, the “Parasite patency (days postinoculation)” value in series [2] (one value per monkey, control 8 days, 15 mg/kg) was 42 days and 60 days. In the series on rodent P. berghei (administered orally), the “MCureD (minimum curative dose)” value is on record as 12.6 mg/kg. For the same molecule, the “dosage needed to cure 50% of animals” value in series [3] amounted to 2 mg/kg/day. Further, the “dosage needed to cure 100% of animals” value in series [3] worked out at 8 mg/kg/day. Also, the Monkeys cured entry in the series with Plasmodium cynomolgi (15 mg/kg/day level) is given as “one out of two monkeys”; in the series with Plasmodium cynomolgi (30 mg/kg/day level), “both monkeys”. Moreover, the “Days post-treatment (to relapse)” value in the series on Plasmodium cynomolgi (Rhesus monkeys, PO 15 mg/kg 1 daily for 3 days) was 44 days and no relapse; with Plasmodium cynomolgi (Rhesus monkeys, PO 30 mg/kg 1 daily for 3 days) it was “no relapse”. Further, the “Mice infected and treated/Mice surviving day 60” value is 5/5 in the series on Plasmodium berghei (day of treatment 1, dose 0.5 mg/kg oral); 5/5 in the series with Plasmodium berghei (day of treatment 1, dose 2 mg/kg oral); 5/5 with Plasmodium berghei (day of treatment 1, dose 8 mg/kg oral); 5/5 with Plasmodium berghei (day of treatment 1, dose 32 mg/kg oral); 5/5 with Plasmodium berghei (day of treatment 2, dose 0.5 mg/kg oral); 5/5 in the series with Plasmodium berghei (day of treatment 2, dose 2 mg/kg oral). The “Mice infected and treated/Mice surviving day 60” value with Plasmodium berghei (day of treatment 2, dose 8 mg/kg oral) is listed as 5/5; in the series with Plasmodium berghei (day of treatment 2, dose 32 mg/kg oral), 5/5; in the series on Plasmodium berghei (day of treatment −1, dose 0.5 mg/kg oral), 5/5; in the series with Plasmodium berghei (day of treatment −1, dose 2 mg/kg oral), 5/5; in the series with Plasmodium berghei (day of treatment −1, dose 8 mg/kg oral), 5/5; in the series on Plasmodium berghei (day of treatment −1, dose 32 mg/kg oral), 5/5. Moreover, the “Mice infected and treated/Mice surviving day 60” value in the series on Plasmodium berghei (day of treatment −2, dose 0.5 mg/kg oral) is 5/5; with Plasmodium berghei (day of treatment −2, dose 2 mg/kg oral), 5/5; in the series with Plasmodium berghei (day of treatment −2, dose 8 mg/kg oral), 5/5; in the series on Plasmodium berghei (day of treatment −2, dose 32 mg/kg oral) it was 5/5. For the same molecule, in the series with Plasmodium berghei (mice, single dose of 0.5 mg/kg within 2 days pre-infection through 2 days post-infection), the “Protection from malaria (oral prophylactic activity)” value was “completely protected from malaria”.
`COc1cc(NC(C)CCCN)c2ncccc2c1` (stereo not drawn) [Primaquine, reference compound] displayed an IC50 in series [1] of 76 nM.
